The values below come from article PMC11882969 (Nature Communications, 2025).

“And” between values parts separate entries of the source, which are not always exact repeats. Equal values may be shown once. Read-outs that look alike come from different tables or passages of the source.

The conditions of series [1]: mouse plasma, 1.0 µM.
A short description of series [2]: in vitro. The following applies: mouse, pH 7.4.
The conditions of series [3]: pH 7.4, kinetic, 2% DMSO, 25 °C.
In series [4] the target is T1, CB1R with G protein (Gi1-3, Go) (Homo sapiens, UniProt P21554).
T1 construct: a N-terminal FLAG tag and C-terminal histidine tag was added to human full-length CB1; FLAG (N); histidine tag (C); made in house; host or cells: CB1R: Spodoptera frugiperda Sf9; G proteins: Trichoplusia ni Hi5
The experiment in a line: GTP turnover assay (GTPase-Glo). It is filed as biochemical. The following applies: replicates, sheet FigS3c. Here is the method:
Analysis of GTP turnover was performed by using a modified protocol of the GTPase-Glo^TM assay (Promega) described previously. Ligand-bound (10 μM ligand incubated for one hour at room temperature) or apo CB1R (1 μM) was mixed with G protein (1 μM) in 20 mM HEPES, pH 7.5, 50 mM NaCl, 0.01% L-MNG/0.001% CHS, 100 μM TCEP, 10 μM GDP and 10 μM GTP and incubated at room temperature. GTPase-Glo-reagent was added to the sample after incubation for 60 min (Gi1-3) and 20 min for (Go). Luminescence was measured after the addition of detection reagent and incubation for 10 min at room temperature using a SpectraMax Paradigm plate reader.

The next series deals with CB1R. The experiment in a line: Bimane fluorescence of labeled CB1R. The series is classed as biochemical, human. The following applies: 10 μM ligand; apo 459 nm. Here is the method:
A minimal cysteine version of CB1R was generated[85] where all the cysteine residues (except C256 and C264) were mutated to alanine. […] Excess label was removed using size exclusion chromatography on a Superdex 200 10/300 Increase column in 20 mM HEPES pH 7.5, 100 mM NaCl and 0.01% MNG/0.001% CHS. Bimane-labeled CB1R at […] was incubated with ligands (10 μM) for one hour at room temperature. Fluorescence data was collected at room temperature in a 150 μL cuvette with a FluorEssence v3.8 software on a Fluorolog instrument (Horiba) in photon-counting mode. Bimane fluorescence was measured by excitation at 370 nm with excitation and emission bandwidth passes of 4 nm. The emission spectra were recorded from 410 to 510 nm with 1 nm increment and 0.1 s integration time.

The subject of another series is P-gp (human MDR1). The experiment in a line: in vitro. Conditions: dog, MDCK-MDR1, pH 7.4.
The conditions of series [5]: for Stability time course, Mean (FS10f): relative to 100 at 0 min.
Series [6] can be described thus: in vitro. The following applies: mouse, microsomes, pH 7.4.

T1 sequence (P21554 whole entry): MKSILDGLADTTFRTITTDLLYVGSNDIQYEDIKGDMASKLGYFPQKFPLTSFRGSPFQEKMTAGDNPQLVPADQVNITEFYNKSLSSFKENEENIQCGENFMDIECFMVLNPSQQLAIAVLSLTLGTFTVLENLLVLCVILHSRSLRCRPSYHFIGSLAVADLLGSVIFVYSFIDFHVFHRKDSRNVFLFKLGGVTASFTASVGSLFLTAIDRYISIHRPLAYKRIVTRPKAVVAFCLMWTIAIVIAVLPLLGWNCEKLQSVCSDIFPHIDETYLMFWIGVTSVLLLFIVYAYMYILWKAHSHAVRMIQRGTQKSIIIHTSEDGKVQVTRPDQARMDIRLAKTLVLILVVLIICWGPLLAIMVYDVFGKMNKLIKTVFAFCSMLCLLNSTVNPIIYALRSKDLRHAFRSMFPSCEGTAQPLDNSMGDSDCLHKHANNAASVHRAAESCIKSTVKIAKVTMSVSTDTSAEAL

Regarding `COc1ccc(CCN(C)CCCC(C#N)(c2ccc(OC)c(OC)c2)C(C)C)cc1OC` (stereo not shown) [Verapamil, reference compound], the “Mean % of bound compound” value in series [1] was 88%. Further, the recovery at 5 h, 1 μM in “in vitro [2]” is 91%.

On to `Cc1nccn1CC1CCc2c(c3ccccc3n2C)C1=O` (stereo not shown) [Ondansetron], for which the “PBS solubility, Mean” value in series [3] worked out at 120 µM.

`COC(=O)[C@@H](NC(=O)c1nn(Cc2ccc(F)cc2)c2ccccc12)C(C)(C)C` [MDMB-Fub, MDMB-Fubinaca, reference compound]: the “GTP turnover, normalised (FUB about 100)” value in series [4] (Gi2) is 98.933 and 99.3172 and 100.642 and 101.735 and 100.511 and 98.862; in series [4] (Gi3), 98.4729 and 99.2586 and 100.386 and 101.71 and 99.9413 and 100.231; in series [4] (Goa), 94.5882 and 101.149 and 98.4211 and 105.861 and 100.202 and 99.77; in series [4] (first block, G protein not printed (Gi2, Gi3, Goa follow)), 100.725 and 100.983 and 100.099 and 103.208 and 97.7953 and 97.1894. In addition, the “bimane spectrum λmax” value in the series with CB1R was found to be 465 nm.

Broadly, the efflux ratio is a quotient of directional permeabilities that is used to spot active efflux. With `C[C@H]1O[C@@H](O[C@H]2[C@@H](O)C[C@H](O[C@H]3[C@@H](O)C[C@H](O[C@H]4CC[C@@]5(C)[C@H](CC[C@@H]6[C@@H]5C[C@@H](O)[C@]5(C)[C@@H](C7=CC(=O)OC7)CC[C@]65O)C4)O[C@@H]3C)O[C@@H]2C)C[C@H](O)[C@@H]1O` [Digoxin], in the series on P-gp (human MDR1), the efflux ratio at 90 min, 10 μM stood at 7.3.

`CC(C)NCC(O)COc1cccc2ccccc12` (stereo not shown) [Propranolol]: the “Stability time course, Mean (FS10f)” value in series [5] (Time 0 min) is on record as 100; in series [5] (Time 7 min) it was 46.9307; in series [5] (Time 15 min), 32.0792; in series [5] (Time 25 min), 24.5545; in series [5] (Time 40 min), 16.6997. Moreover, in series [5] (mouse microsomes, 15 min), the “Mean % Remaining” value was determined as 32%. Moreover, the amount remaining at 40 min, 2 µM in “in vitro [6]” was determined as 106%.
